The source made the active and inactive calls. The rule behind the calls is not given here.
Tests used:
A 172 = experiment: Cytotoxicity against human A-172 cells assessed as inhibition of cell viability measured upto 17 uM incubated for 5 days; format: toxicity, cell-based; details: a 172, 120 h, time 5 day
[1] = Hepatic extraction in cynomolgus monkey; format: ADME, Macaca fascicularis; details: read-out: ERH
[2] = Oral bioavailability in dog at 5 mg/kg; format: ADME, organism-based, Canis lupus familiaris; details: in vivo
Hepatitis B virus [3] = experiment: Antiviral activity against genotype C HBV infected in primary human hepatocyte assessed as reduction in […] replaced for every 2 to 3 days incubated for 12 days by multiplex chemiluminescent MSD assay; format: functional, organism-based; details: time 12.0 day
[4] = Oral bioavailability in Sprague-Dawley rat after 24 hrs by LC/MS/MS method; format: ADME, organism-based; details: in vivo
MG-63 = experiment: Cytotoxicity against human MG-63 cells assessed as inhibition of cell viability measured upto 17 uM incubated for 5 days; format: toxicity, cell-based; details: mg-63, 120 h, time 5 day
MRC5 = experiment: Cytotoxicity against human MRC5 cells assessed as inhibition of cell viability measured upto 17 uM incubated for 5 days; format: toxicity, cell-based; details: mrc5, 120 h, time 5 day
[5] = Cytotoxicity against rat NRVM cells assessed as inhibition of cell viability measured upto 17 uM incubated for 5 days; format: toxicity, cell-based; details: 120 h, time 5 day
Primary hepatocyte [6] = experiment: Effect on cccDNA level in HBV infected primary human hepatocyte at 0.25 uM media replaced for every 2 to 3 days incubated for 12 days by Southern blot analysis; format: functional, cell-based; details: Hepatitis B virus, time 12.0 day
Hepatocyte = experiment: Cytotoxicity against primary human hepatocyte assessed as change in cell morphology; format: toxicity, cell-based; details: hepatocytes
A-375 = experiment: Cytotoxicity against human A-375 cells assessed as inhibition of cell viability measured upto 17 uM incubated for 5 days; format: toxicity, cell-based; details: a-375, 120 h, time 5 day
[7] = In vivo clearance in rat; format: ADME, organism-based
OVCAR-3 = experiment: Cytotoxicity against human OVCAR-3 cells assessed as inhibition of cell viability measured upto 17 uM incubated for 5 days; format: toxicity, cell-based; details: ovcar-3, 120 h, time 5 day
Huh-7 = experiment: Cytotoxicity against human Huh-7 cells assessed as inhibition of cell viability measured upto 17 uM incubated for 5 days; format: toxicity, cell-based; details: huh-7, 120 h, time 5 day
J82 = experiment: Cytotoxicity against human J82 cells assessed as inhibition of cell viability measured upto 17 uM incubated for 5 days; format: toxicity, cell-based; details: j82, 120 h, time 5 day
Hepatitis B virus [8] = experiment: Antiviral activity against genotype D (AD38-derived) HBV infected in primary human hepatocyte assessed as inhibition of extracellular HBsAg media replaced for every 2 to 3 days incubated for 12 days by multiplex chemiluminescent MSD assay; format: functional; details: time 12 day
[9] = Hepatic extraction in dog; format: ADME, Canis lupus familiaris; details: read-out: ERH
Hepatitis B virus [10] = experiment: Antiviral activity against HBV genome D integrated human HepG2.2.15 cells assessed as reduction in extracellular HBsAg media replaced for every 2 to 3 days incubated for 7 days; format: functional, organism-based; details: time 7.0 day
[11] = Clearance in Sprague-Dawley rat at […], iv measured after 24 hrs by LC/MS/MS method; format: ADME, organism-based; details: in vivo
Hepatitis B virus [12] = experiment: Antiviral activity against genotype D HBV infected in sodium taurocholate co-transporting polypeptide receptor-expressing stable HepG2 cell line assessed as suppression of HBsAg level incubated for 5 days by multiplex chemiluminescent MSD assay; format: functional, organism-based; details: HepG2, 120 h
[13] = Oral bioavailability in rat at 5 mg/kg; format: ADME, organism-based; details: in vivo
A498 = experiment: Cytotoxicity against human A498 cells assessed as inhibition of cell viability measured upto 17 uM incubated for 5 days; format: toxicity, cell-based; details: a498, 120 h, time 5 day
[14] = Hepatic extraction in rat; format: ADME; details: read-out: ERH
SK-N-AS = experiment: Cytotoxicity against human SK-N-AS cells assessed as inhibition of cell viability measured upto 17 uM incubated for 5 days; format: toxicity, cell-based; details: 120 h, time 5 day
PBMC = experiment: Cytotoxicity against human PBMC cells assessed as inhibition of cell viability measured upto 17 uM incubated for 5 days; format: toxicity, cell-based; details: 120 h, time 5 day
769-P = experiment: Cytotoxicity against human 769-P cells assessed as inhibition of cell viability measured upto 17 uM incubated for 5 days; format: toxicity, cell-based; details: 120 h, time 5 day
Hepatitis B virus [15] = experiment: Antiviral activity against HBV infected in primary human hepatocyte assessed as reduction in intracellular HBsAg protein at 250 nM media replaced for every 2 to 3 days incubated for 14 days by immunofluorescence microscopy; format: functional, organism-based; details: time 14.0 day
Hepatitis B virus [16] = experiment: Antiviral activity against genotype A HBV infected in primary human hepatocyte assessed as reduction in […] replaced for every 2 to 3 days incubated for 12 days by multiplex chemiluminescent MSD assay; format: functional, organism-based; details: time 12.0 day
Hepatitis B virus [17] = experiment: Antiviral activity against HBV genome D integrated human HepAD38 cells assessed as reduction in extracellular HBsAg media replaced for every 2 to 3 days incubated for 7 days […]; format: functional, organism-based; details: time 7.0 day
Hepatitis B virus [18] = experiment: Antiviral activity against genotype E HBV infected in primary human hepatocyte assessed as reduction in […] replaced for every 2 to 3 days incubated for 12 days by multiplex chemiluminescent MSD assay; format: functional, organism-based; details: time 12.0 day
Primary hepatocyte [19] = experiment: Effect on cccDNA level in HBV infected primary human hepatocyte at 0.25 uM media replaced for every 2 to 3 days incubated for 12 days in presence of Tenofovir by Southern blot analysis; format: functional, cell-based; details: Hepatitis B virus, time 12.0 day
ASPC1 = experiment: Cytotoxicity against human AsPC1 cells assessed as inhibition of cell viability measured upto 17 uM incubated for 5 days; format: toxicity, cell-based; details: aspc1, 120 h, time 5 day
Hepatitis B virus [20] = experiment: In vivo antiviral activity against HBV in model of HBV 1.3.32 mouse harboring integrated greater-than-genome-length HBV transgene assessed as plasma HBsAg level measured in off-treatment recovery phase at 50 mg/kg, sc qd treated for 4 weeks (reference value: 1.1 log10 ng/ml); format: functional
PC-3 = experiment: Cytotoxicity against human PC-3 cells assessed as inhibition of cell viability measured upto 17 uM incubated for 5 days; format: toxicity, cell-based; details: pc-3, 120 h, time 5 day
[21] = test system: Woodchuck hepatitis virus; experiment: Antiviral activity against WHV-infected Woodchucks assessed as reduction in WHV sAg level in plasma at 15 mg/kg, po qd for 12 weeks; format: functional
[22] = Lipophilicity, logD of the compound; format: physicochemical; details: octanol/water
AN3-CA = experiment: Cytotoxicity against human AN3-CA cells assessed as inhibition of cell viability measured upto 17 uM incubated for 5 days; format: toxicity, cell-based; details: 120 h, time 5 day
Hepatitis B virus [23] = experiment: Antiviral activity against genotype B HBV infected in primary human hepatocyte assessed as reduction in […] replaced for every 2 to 3 days incubated for 12 days by multiplex chemiluminescent MSD assay; format: functional, organism-based; details: time 12.0 day
HepG2 = experiment: Cytotoxicity against human HepG2 cells assessed as inhibition of cell viability measured upto 17 uM incubated for 5 days; format: toxicity, cell-based; details: hepg2, 120 h, time 5 day
A204 = experiment: Cytotoxicity against human A204 cells assessed as inhibition of cell viability measured upto 17 uM incubated for 5 days; format: toxicity, cell-based; details: a204, 120 h, time 5 day
[24] = In vivo clearance in cynomolgus monkey; format: ADME, organism-based, Macaca fascicularis
Hepatitis B virus [25] = experiment: In vivo antiviral activity against HBV in model of HBV 1.3.32 mouse harboring integrated greater-than-genome-length HBV transgene assessed as reduction in plasma HBsAg level at 50 mg/kg, sc qd treated for 4 weeks (reference value: 1.1 log10 ng/ml); format: functional
MT4 = experiment: Cytotoxicity against human MT4 cells assessed as inhibition of cell viability measured upto 17 uM incubated for 5 days; format: toxicity, cell-based; details: mt4, 120 h, time 5 day
[26] = In vivo clearance in dog; format: ADME, organism-based, Canis lupus familiaris
[27] = Oral bioavailability in cynomolgus monkey at 5 mg/kg; format: ADME, organism-based, Macaca fascicularis; details: in vivo

COCCCOc1cc2c(cc1Cl)-c1cc(=O)c(C(=O)O)cn1N(C(C)(C)C)C2
Activity (A 172): Non-Toxic
hepatic extraction ratio [1]: 0.02
bioavailability [2]: > 100%
Activity (Hepatitis B virus [3]): Active
bioavailability [4]: 109%
Activity (MG-63): Non-Toxic
Activity (MRC5): Non-Toxic
Activity [5]: Non-Toxic
Activity (Primary hepatocyte [6]): inactive
Activity (Hepatocyte): Non-Toxic
Activity (A-375): Non-Toxic
clearance [7]: 3 mL/min/kg
Activity (OVCAR-3): Non-Toxic
Activity (Huh-7): Non-Toxic
Activity (J82): Non-Toxic
inhibition (INH) (Hepatitis B virus [8]): 85%
hepatic extraction ratio [9]: 0.072
Activity (Hepatitis B virus [10]): Active
clearance [11]: 19.7 mL/min/kg
EC50 (Hepatitis B virus [12]): 5.8 nM
bioavailability [13]: > 100%
Activity (A498): Non-Toxic
hepatic extraction ratio [14]: 0.043
Activity (SK-N-AS): Non-Toxic
Activity (PBMC): Non-Toxic
Activity (769-P): Non-Toxic
Activity (Hepatitis B virus [15]): Active
Activity (Hepatitis B virus [16]): Active
Activity (Hepatitis B virus [17]): Active
Activity (Hepatitis B virus [18]): Active
Activity (Primary hepatocyte [19]): inactive
Activity (ASPC1): Non-Toxic
Activity (Hepatitis B virus [20]): 0.7 log10ng/ml
Activity (PC-3): Non-Toxic
Activity [21]: 1.4 log10ng/ml
logD [22]: 2
Activity (AN3-CA): Non-Toxic
Activity (Hepatitis B virus [23]): Active
Activity (HepG2): Non-Toxic
Activity (A204): Non-Toxic
clearance [24]: 0.533 mL/min/kg
Activity (Hepatitis B virus [25]): 2.2 log10ng/ml
Activity (MT4): Non-Toxic
clearance [26]: 2.17 mL/min/kg
bioavailability [27]: 48%
